According to PubChem BioAssay AID270 (DTP/NCI, 2004):
“And” between values parts separate entries of the source, which are not always exact repeats. Equal values may be shown once. Results filed as inconclusive are left out.

System: BDF1 mice, s.c. Lewis lung carcinoma, T/C %
Experiment: NCI In Vivo Anticancer Drug Screen. Data for tumor model Lewis Lung Carcinoma (subcutaneous) in B6D2F1 (BDF1) mice
Protocol: The antitumor activity of compounds was measured in mice bearing transplantable tumors. Survival or tumor size were measured and the results are expressed as the measurement made in the treated group (T) divided by the measurement made in the vehicle treated control group (C). The tumor model used in this assay is Lewis Lung Carcinoma (subcutaneous) in B6D2F1 (BDF1) mice

With `O=c1[nH]cc(F)c(=O)[nH]1` the T/C (endpoint: mean tumor weight, dose: 5.0 mg/kg/injection, schedule: Q01DX011 (ip), vehicle: saline, higher = larger tumour) was 54 % of control, the T/C (endpoint: mean tumor weight, dose: 10.0 mg/kg/injection, schedule: Q01DX011 (ip), vehicle: saline, higher = larger tumour) was 68 % of control and the T/C (endpoint: mean tumor weight, dose: 13.5 mg/kg/injection, schedule: Q01DX011 (ip), vehicle: water, higher = larger tumour) was 51 % of control. The T/C (endpoint: mean tumor weight, dose: 20.0 mg/kg/injection, schedule: Q01DX011 (ip), vehicle: saline, higher = larger tumour) was 35 % of control, the T/C (endpoint: mean tumor weight, dose: 27.0 mg/kg/injection, schedule: Q01DX011 (ip), vehicle: water, higher = larger tumour) was 6 % of control and the T/C (endpoint: median survival time, dose: 5.0 mg/kg/injection, schedule: Q01DX009 (ip), vehicle: Klucel (hydroxypropylcellulose) (HPC), higher = longer survival) was 86 % of control. For the same compound, the T/C (endpoint: median survival time, dose: 5.0 mg/kg/injection, schedule: Q01DX009 (ip), vehicle: saline with Tween-80, higher = longer survival) was 97 % of control, the T/C (endpoint: median survival time, dose: 5.0 mg/kg/injection, schedule: Q01DX009 (ip), vehicle: saline, higher = longer survival) was 108 % of control and the T/C (endpoint: median survival time, dose: 10.0 mg/kg/injection, schedule: Q01DX009 (ip), vehicle: Klucel (hydroxypropylcellulose) (HPC), higher = longer survival) was 97 % of control and 98 % of control. For the same compound, the T/C (endpoint: median survival time, dose: 10.0 mg/kg/injection, schedule: Q01DX009 (ip), vehicle: saline with Tween-80, higher = longer survival) was 86 % of control, the T/C (endpoint: median survival time, dose: 10.0 mg/kg/injection, schedule: Q01DX009 (ip), vehicle: saline, higher = longer survival) was 118 % of control and the T/C (endpoint: median survival time, dose: 16.2 mg/kg/injection, schedule: Q04DX002 (ip), vehicle: saline, higher = longer survival) was 97 % of control and 102 % of control. For the same compound, the T/C (endpoint: median survival time, dose: 20.0 mg/kg/injection, schedule: Q01DX009 (ip), vehicle: Klucel (hydroxypropylcellulose) (HPC), higher = longer survival) was 111 % of control, the T/C (endpoint: median survival time, dose: 20.0 mg/kg/injection, schedule: Q01DX009 (ip), vehicle: saline with Tween-80, higher = longer survival) was 97 % of control and 112 % of control and the T/C (endpoint: median survival time, dose: 21.6 mg/kg/injection, schedule: Q04DX004 (ip), vehicle: saline, higher = longer survival) was 124 % of control. For the same compound, the T/C (endpoint: median survival time, dose: 23.3 mg/kg/injection, schedule: Q04DX003 (iv), vehicle: alkali diluted with saline, higher = longer survival) was 157 % of control, the T/C (endpoint: median survival time, dose: 27.0 mg/kg/injection, schedule: Q04DX002 (ip), vehicle: saline, higher = longer survival) was 100 % of control and 102 % of control and the T/C (endpoint: median survival time, dose: 36.0 mg/kg/injection, schedule: Q04DX004 (ip), vehicle: saline, higher = longer survival) was 115 % of control. The T/C (endpoint: median survival time, dose: 40.0 mg/kg/injection, schedule: Q01DX009 (ip), vehicle: Klucel (hydroxypropylcellulose) (HPC), higher = longer survival) was 86 % of control, the T/C (endpoint: median survival time, dose: 40.4 mg/kg/injection, schedule: Q04DX003 (iv), vehicle: alkali diluted with saline, higher = longer survival) was 201 % of control and the T/C (endpoint: median survival time, dose: 45.0 mg/kg/injection, schedule: Q04DX002 (ip), vehicle: saline, higher = longer survival) was 96 % of control and 97 % of control. For the same compound, the T/C (endpoint: median survival time, dose: 70.0 mg/kg/injection, schedule: Q04DX003 (iv), vehicle: alkali diluted with saline, higher = longer survival) was 98 % of control, the T/C (endpoint: median survival time, dose: 75.0 mg/kg/injection, schedule: Q04DX002 (ip), vehicle: saline, higher = longer survival) was 105 % of control and the T/C (endpoint: median survival time, dose: 100.0 mg/kg/injection, schedule: Q04DX004 (ip), vehicle: saline, higher = longer survival) was 64 % of control. For the same compound, the T/C (endpoint: median survival time, dose: 121.0 mg/kg/injection, schedule: Q04DX003 (iv), vehicle: alkali diluted with saline, higher = longer survival) was 95 % of control, the T/C (endpoint: median survival time, dose: 125.0 mg/kg/injection, schedule: Q04DX002 (ip), vehicle: saline, higher = longer survival) was 109 % of control and the T/C (endpoint: median tumor weight (est.), dose: 5.0 mg/kg/injection, schedule: Q01DX009 (ip), vehicle: Klucel (hydroxypropylcellulose) (HPC), higher = larger tumour) was 102 % of control. The T/C (endpoint: median tumor weight (est.), dose: 5.0 mg/kg/injection, schedule: Q01DX009 (ip), vehicle: saline with Tween-80, higher = larger tumour) was 97 % of control, the T/C (endpoint: median tumor weight (est.), dose: 10.0 mg/kg/injection, schedule: Q01DX009 (ip), vehicle: Klucel (hydroxypropylcellulose) (HPC), higher = larger tumour) was 91 % of control and the T/C (endpoint: median tumor weight (est.), dose: 10.0 mg/kg/injection, schedule: Q01DX009 (ip), vehicle: saline with Tween-80, higher = larger tumour) was 93 % of control. For the same compound, the T/C (endpoint: median tumor weight (est.), dose: 20.0 mg/kg/injection, schedule: Q01DX009 (ip), vehicle: Klucel (hydroxypropylcellulose) (HPC), higher = larger tumour) was 73 % of control and the T/C (endpoint: median tumor weight (est.), dose: 20.0 mg/kg/injection, schedule: Q01DX009 (ip), vehicle: saline with Tween-80, higher = larger tumour) was 53 % of control.
